Columns and labels:
johnsongrass = assay: Test F preemergence; type: in vivo, Sorghum halepense
Method in brief: (§1)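 Greenhouse study; evaluation window 14–21 days post-treatment. Seedlings sprayed postemergence measured 2–18 cm, while preemergence treatments went on silt loam soil. Non-phytotoxic solvent mixture with surfactant served as vehicle; response assessed by eye, 0–100 scale.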

dallisgrass = assay: Test E preemergence; type: in vivo, Paspalum dilatatum; details: 21 days, scale 0 to 100
From the text: Seeds of plant species selected from bermudagrass (Cynodon dactylon), Surinam grass (Brachiaria decumbens), crabgrass, large (large crabgrass, Digitaria sanguinalis), crabgrass, naked (naked crabgrass, Digitaria nuda), foxtail, green (green foxtail, Setaria viridis), johnsongrass (Sorghum halepense), kochia (Kochia scoparia), morningglory (pitted morningglory, Ipomoea lacunosa), nutsedge, purple (purple nutsedge, Cyperus rotundus), ragweed (common ragweed, Ambrosia elation), mustard, black (black mustard, Brassica nigra), guineagrass (Panicum maximum), dallisgrass (Paspalum dilatatum), barnyardgrass (Echinochloa crus-galli), sandbur (southern sandbur, Cenchrus echinatus), sowthistle (common sowthistle, Sonchus oleraceous), ryegrass, Italian (Italian ryegrass, Lolium multiflorum), signalgrass (broadleaf signalgrass, Brachiaria platyphylla), dayflower, VA (Virginia (VA) dayflower, Commelina virginica), bluegrass (annual bluegrass, Poa annua), quackgrass (Elytrigia repens), mallow (common mallow, Malva sylvestris), buckwheat, wild (wild buckwheat, Polygonum convolvulus), leafy spurge (Euphorbia esula), common chickweed (Stellaria media), wild poinsettia (Euphorbia heterophylla), pigweed, palmer (palmer pigweed, Amaranthus palmeri), and pigweed (redroot pigweed, Amaranthus retroflexus) were planted into a blend of loam soil and sand and treated preemergence with test chemicals formulated in a non-phytotoxic solvent mixture which included a surfactant.
Treated plants and controls were maintained in a greenhouse for 21 days, after which time all species were compared to controls and visually evaluated. Plant response ratings, summarized in Table E, are based on a scale of 0 to 100 where 0 is no effect and 100 is complete control. A dash (-) response means no test result.

arrowleaf sida = assay: Test F preemergence; type: in vivo, Sida rhombifolia
Method in brief: as §1

deadnettle = assay: Test D postemergence; type: in vivo, Lamium amplexicaule; details: scale 0 to 100
Method in brief: (§2)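 Scores of 0 (no effect) to 100 (complete control) come from visual comparison with untreated plants 14–21 days after spraying. Applications were made pre-emergence to silt loam or post-emergence to plants 2–18 cm tall.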

dayflower, VA = assay: Test F preemergence; type: in vivo, Commelina virginica
From the text: Seeds of plant species selected from corn (Zea mays), soybean (Glycine max), velvetleaf (Abutilon theophrasti), lambsquarters (Chenopodium album), wild poinsettia (Euphorbia heterophylla), pigweed, palmer (palmer pigweed, Amaranthus palmeri), common waterhemp (Amaranthus rudis), surinam grass (Brachiaria decumbens), large crabgrass (Digitaria sanguinalis), crabgrass, Brazil (Brazilian crabgrass, Digitaria horizontalis), fall panicum (Panicum dichotomiflorum), giant foxtail (Setaria faberii), green foxtail (Setaria viridis), goosegrass (Eleusine indica), johnsongrass (Sorghum halepense), common ragweed (Ambrosia elation), barnyardgrass (Echinochloa crus-galli), southern sandbur (Cenchrus echinatus), arrowleaf sida (Sida rhombifolia), Italian ryegrass (Lolium multiflorum), dayflower, VA (Virginia (VA) dayflower, Commelina virginica), field bindweed (Convolvulus arvensis), cocklebur (common cocklebur, Xanthium strumarium), morningglory (Ipomoea coccinea), nightshade (eastern black nightshade, Solanum ptycanthum), kochia (Kochia scoparia), yellow nutsedge (Cyperus esculentus), and hairy beggarticks (Bidens pilosa), were planted into a silt loam soil and treated preemergence with test chemicals formulated in a non-phytotoxic solvent mixture which included a surfactant.
At the same time, plants from these crop and weed species and also horseweed (Canada horseweed, Conyza canadensis), smartweed (ladysthumb smartweed, Polygonum persicaria), waterhemp_RES1, (ALS & Triazine resistant common waterhemp, Amaranthus rudis), and waterhemp_RES2, (ALS & HPPD resistant common waterhemp, Amaranthus rudis) were treated with postemergence applications of test chemicals formulated in the same manner. Plants ranged in height from 2 to 18 cm for postemergence treatments (1- to 4-leaf stage). Treated plants and controls were maintained in a greenhouse for 14 to 21 days, after which time all species were compared to controls and visually evaluated. Plant response ratings, summarized in Table F, are based on a scale of 0 to 100 where 0 is no effect and 100 is complete control. A dash (-) response means no test result.

speedwell = assay: Test D preemergence; type: in vivo, Veronica persica; details: scale 0 to 100
Method in brief: as §2

mustard, wild = assay: Test D preemergence; type: in vivo, Sinapis arvensis; details: scale 0 to 100
From the text: Seeds of plant species selected from bluegrass (annual bluegrass, Poa annua), blackgrass (Alopecurus myosuroides), canarygrass (littleseed canarygrass, Phalaris minor), chickweed (common chickweed, Stellaria media), galium (catchweed bedstraw, Galium aparine), bromegrass, downy (downy bromegrass, Bromus tectorum), field poppy (Papaver rhoeas), field violet (Viola arvensis), foxtail, green (green foxtail, Setaria viridis), deadnettle (henbit deadnettle, Lamium amplexicaule), ryegrass, Italian (Italian ryegrass, Lolium multiflorum), kochia (Kochia scoparia), lambsquarters (Chenopodium album), oilseed rape (Brassica napus), pigweed (redroot pigweed, Amaranthus retroflexus), chamomile (scentless chamomile, Matricaria inodora), speedwell (bird's-eye speedwell, Veronica persica), barley, spring (spring barley, Hordeum vulgare), wheat, spring (spring wheat, Triticum aestivum), buckwheat, wild (wild buckwheat, Polygonum convolvulus), mustard, wild (wild mustard, Sinapis arvensis), oat, wild (wild oat, Avena fatua), radish, wild (wild radish, Raphanus raphanistrum), windgrass (Apera spica-venti), Russian thistle (Salsola kali), barley, winter (winter barley, Hordeum vulgare), and wheat, winter (winter wheat, Triticum aestivum) were planted into a silt loam soil and treated preemergence with test chemicals formulated in a non-phytotoxic solvent mixture which included a surfactant.
At the same time, these species were planted in pots containing Redi-Earth® planting medium (Scotts Company, 14111 Scottslawn Road, Marysville, Ohio 43041) comprising spaghnum peat moss, vermiculite, wetting agent and starter nutrients and treated with postemergence applications of the test chemicals formulated in the same manner. Plants ranged in height from 2 to 18 cm (1- to 4-leaf stage). Treated plants and controls were maintained in a controlled growth environment for 14 to 21 days after which time all species were compared to controls and visually evaluated. Plant response ratings, summarized in Table D, are based on a scale of 0 to 100 where 0 is no effect and 100 is complete control. A dash (-) response means no test result.

[1] = Preemergence, 31 g ai/ha, scale 0 to 100
[2] = Preemergence, 62 g ai/ha, scale 0 to 100
[3] = Preemergence, 125 g ai/ha, scale 0 to 100
[4] = preemergence, 8 g ai/ha, scale 0 to 100, 100 is complete control
[5] = preemergence, 16 g ai/ha, scale 0 to 100, 100 is complete control

CCc1cc(C(=O)NCC(F)(F)F)nn1Cc1ccnc(C(F)(F)F)c1 [Compound 78, 5-ethyl-N-(2,2,2-trifluoroethyl)-1-[[(2-trifluoromethyl)-4-pyridinyl]methyl]-1H-pyrazole-3-carboxamide]
Plant response rating, Johnsongrass (johnsongrass; [1]): 30 | Plant response rating, Johnsongrass (johnsongrass; [2]): 95 | Plant response rating, Johnsongrass (johnsongrass; [3]): 100 | Plant response rating, Johnsongrass (johnsongrass; [4]): 20 | Plant response rating, Johnsongrass (johnsongrass; [5]): 20 | Plant response rating, Dallisgrass (dallisgrass; 16 g ai/ha): 90 | Plant response rating, Dallisgrass (dallisgrass; 31 g ai/ha): 100 | Plant response rating, Dallisgrass (dallisgrass; 62 g ai/ha): 100 | Plant response rating, Dallisgrass (dallisgrass; 125 g ai/ha): 100 | Plant response rating, Dallisgrass (dallisgrass; 250 g ai/ha): 100 | Plant response rating, Arrowleaf Sida (arrowleaf sida; [1]): 0 | Plant response rating, Arrowleaf Sida (arrowleaf sida; [2]): 20 | Plant response rating, Arrowleaf Sida (arrowleaf sida; [3]): 35 | Plant response rating, Arrowleaf Sida (arrowleaf sida; [4]): 0 | Plant response rating, Arrowleaf Sida (arrowleaf sida; [5]): 0 | Deadnettle plant response rating (deadnettle; Postemergence, 31 g ai/ha): 15 | Deadnettle plant response rating (deadnettle; Postemergence, 125 g ai/ha): 35 | Deadnettle plant response rating (deadnettle; Postemergence, 250 g ai/ha): 60 | Deadnettle plant response rating (deadnettle; postemergence, 62 g ai/ha): 20 | Plant response rating, Dayflower, VA (dayflower, VA; [1]): 50 | Plant response rating, Dayflower, VA (dayflower, VA; [2]): 95 | Plant response rating, Dayflower, VA (dayflower, VA; [3]): 100 | Plant response rating, Dayflower, VA (dayflower, VA; [4]): 0 | Plant response rating, Dayflower, VA (dayflower, VA; [5]): 0 | Plant response rating, Speedwell (speedwell; 31 g ai/ha): 100 | Plant response rating, Speedwell (speedwell; 62 g ai/ha): 100 | Plant response rating, Speedwell (speedwell; 125 g ai/ha): 100 | Plant response rating, Speedwell (speedwell; 250 g ai/ha): 100 | Plant response rating, Mustard, Wild (mustard, wild; 31 g ai/ha): 100 | Plant response rating, Mustard, Wild (mustard, wild; 62 g ai/ha): 100 | Plant response rating, Mustard, Wild (mustard, wild; 125 g ai/ha): 100 | Plant response rating, Mustard, Wild (mustard, wild; 250 g ai/ha): 100

CCCc1cc(C(=O)NCC(F)(F)F)nn1Cc1ccnc(C(F)(F)F)c1 [Compound 105]
Plant response rating, Johnsongrass (johnsongrass; [1]): 75 | Plant response rating, Johnsongrass (johnsongrass; [2]): 98 | Plant response rating, Johnsongrass (johnsongrass; [3]): 98 | Plant response rating, Johnsongrass (johnsongrass; [4]): 0 | Plant response rating, Johnsongrass (johnsongrass; [5]): 25 | Plant response rating, Dallisgrass (dallisgrass; 16 g ai/ha): 20 | Plant response rating, Dallisgrass (dallisgrass; 31 g ai/ha): 95 | Plant response rating, Dallisgrass (dallisgrass; 62 g ai/ha): 100 | Plant response rating, Dallisgrass (dallisgrass; 125 g ai/ha): 100 | Plant response rating, Dallisgrass (dallisgrass; 250 g ai/ha): 100 | Plant response rating, Arrowleaf Sida (arrowleaf sida; [1]): 0 | Plant response rating, Arrowleaf Sida (arrowleaf sida; [2]): 0 | Plant response rating, Arrowleaf Sida (arrowleaf sida; [3]): 15 | Plant response rating, Arrowleaf Sida (arrowleaf sida; [4]): 0 | Plant response rating, Arrowleaf Sida (arrowleaf sida; [5]): 0 | Deadnettle plant response rating (deadnettle; Postemergence, 31 g ai/ha): 15 | Deadnettle plant response rating (deadnettle; Postemergence, 125 g ai/ha): 55 | Deadnettle plant response rating (deadnettle; Postemergence, 250 g ai/ha): 60 | Deadnettle plant response rating (deadnettle; postemergence, 62 g ai/ha): 20 | Plant response rating, Dayflower, VA (dayflower, VA; [1]): 50 | Plant response rating, Dayflower, VA (dayflower, VA; [2]): 80 | Plant response rating, Dayflower, VA (dayflower, VA; [3]): 98 | Plant response rating, Dayflower, VA (dayflower, VA; [4]): 0 | Plant response rating, Dayflower, VA (dayflower, VA; [5]): 40 | Plant response rating, Speedwell (speedwell; 31 g ai/ha): 100 | Plant response rating, Speedwell (speedwell; 62 g ai/ha): 100 | Plant response rating, Speedwell (speedwell; 125 g ai/ha): 100 | Plant response rating, Speedwell (speedwell; 250 g ai/ha): 100 | Plant response rating, Mustard, Wild (mustard, wild; 31 g ai/ha): 100 | Plant response rating, Mustard, Wild (mustard, wild; 62 g ai/ha): 100 | Plant response rating, Mustard, Wild (mustard, wild; 125 g ai/ha): 100 | Plant response rating, Mustard, Wild (mustard, wild; 250 g ai/ha): 100

CCOc1cc(C(=O)NC2CC2)nn1Cc1ccnc(C(F)(F)F)c1 [Compound 189]
Plant response rating, Dallisgrass (dallisgrass; 4 g ai/ha): 0 | Plant response rating, Dallisgrass (dallisgrass; 8 g ai/ha): 5 | Plant response rating, Dallisgrass (dallisgrass; 16 g ai/ha): 75 | Plant response rating, Dallisgrass (dallisgrass; 31 g ai/ha): 100 | Plant response rating, Dallisgrass (dallisgrass; 62 g ai/ha): 100 | Deadnettle plant response rating (deadnettle; Postemergence, 31 g ai/ha): 45 | Deadnettle plant response rating (deadnettle; Postemergence, 125 g ai/ha): 55 | Deadnettle plant response rating (deadnettle; Postemergence, 250 g ai/ha): 75 | Deadnettle plant response rating (deadnettle; postemergence, 62 g ai/ha): 45 | Plant response rating, Speedwell (speedwell; 62 g ai/ha): 100 | Plant response rating, Speedwell (speedwell; 125 g ai/ha): 100 | Plant response rating, Speedwell (speedwell; 250 g ai/ha): 100 | Plant response rating, Mustard, Wild (mustard, wild; 62 g ai/ha): 100 | Plant response rating, Mustard, Wild (mustard, wild; 125 g ai/ha): 100 | Plant response rating, Mustard, Wild (mustard, wild; 250 g ai/ha): 100
